The values that follow are results of earlier work, collected in patent US20030013726A1 (priority 2000, published 2003).

The subject of the data set is patients with disorders of initiating sleep.

Consider `CCN(C(C)=O)c1cccc(-c2ccnc3c(C#N)cnn23)c1` [zaleplon], for which the “sleep stages 3 and 4 (delta sleep and deep sleep)” value (clinical studies) is “not impaired”. Besides, the “effectiveness for patients with disorders of initiating sleep” value (clinical study on more than 3 700 patients in the USA, Canada and Europe, including elderly people 65-85 years) is listed as “very effective”. For the same compound, the “sleep latency estimated both by polysomnography and subjectively” value (compared with placebo, clinical studies) is listed as “significantly reduced”.
